How the values were obtained:
[1] = target: T1, human β2 adrenergic receptor (Homo sapiens, UniProt P07550); assay: Radioligand binding assay (Test A); details: for Ki: [3H]dihydroalprenolol displacement, HEK-293 membranes, results expressed as pKi; for Selectivity β2/β1 (binding): ratio Ki(β1)/Ki(β2)
T1 construct: expressed in transfected cells; membrane preparation
Procedure: HEK-293 derived cell lines stably expressing cloned human β1 or β2 adrenergic receptors, respectively, were grown to near confluency in DMEM with 10% dialyzed FBS in the presence of 500 μg/mL Geneticin. The cell monolayer was lifted with Versene 1:5,000 (0.2 g/L EDTA in PBS) using a cell scraper. Cells were pelleted by centrifugation at 1,000 rpm, and cell pellets were either stored frozen at −80° C. or membranes were prepared immediately. For preparation, cell pellets were resuspended in lysis buffer (10 mM Tris/HCL pH 7.4 @ 4° C., one tablet of “Complete Protease Inhibitor Cocktail Tablets with 2 mM EDTA” per 50 mL buffer (Roche cat.# 1697498, Roche Molecular Biochemicals, Indianapolis, Ind.)) and homogenized using a tight-fitting Dounce glass homogenizer (20 strokes) on ice. The homogenate was centrifuged at 20,000×g, the pellet was washed once with lysis buffer by resuspension and centrifugation as above. The final pellet was resuspended in membrane buffer (75 mM Tris/HCl pH 7.4, […], 1 mM EDTA @ 25° C.). Protein concentration of the membrane suspension was determined by the method of Bradford (Bradford M M., Analytical Biochemistry, 1976, 72, 248-54). Membranes were stored frozen in aliquots at −80° C.
Binding assays were performed in 96-well microtiter plates in a total assay volume of 100 μL with 5 μg membrane protein for membranes containing the human β2 adrenergic receptor, or 2.5 μg membrane protein for membranes containing the human β1 adrenergic receptor in assay buffer (75 mM Tris/HCl pH 7.4 @ 25° C., 12.5 mM MgCl2, 1 mM EDTA, 0.2% BSA). […] Non-specific binding was determined in the presence of 10 μM unlabeled alprenolol. […] Filter plates were washed three times with filtration buffer (75 mM Tris/HCl pH 7.4 @ 4° C., 12.5 mM MgCl2, 1 mM EDTA) to remove unbound radioactivity. Plates were dried, 50 μL Microscint-20 liquid scintillation fluid (Packard BioScience Co., Meriden, Conn.) was added and plates were counted in a Packard Topcount liquid scintillation counter (Packard BioScience Co., Meriden, Conn.). Binding data were analyzed by nonlinear regression analysis with the GraphPad Prism Software package (GraphPad Software, Inc., San Diego, Calif.) using the 3-parameter model for one-site competition. The curve minimum was fixed to the value for nonspecific binding, as determined in the presence of 10 μM alprenolol. Ki values for compounds were calculated from observed IC50 values and the Kd value of the radioligand using the Cheng-Prusoff equation (Cheng Y, and Prusoff W H., Biochemical Pharmacology, 1973, 22, 23, 3099-108). The receptor subtype selectivity was calculated as the ratio of Ki(β1)/Ki(β2).
Binding results are expressed as the negative decadic logarithm of the Ki values, pKi. […]

human β2-adrenoceptor = target: T2, human β2-adrenoceptor (Homo sapiens, UniProt P07550); assay: Whole-cell cAMP Flashplate assay, recombinant cell line (Test B); format: cell-based; details: for EC50: HEK-293 cells expressing cloned human β2-adrenoceptor, cAMP; for Selectivity β2/β1 (functional): ratio EC50(β1)/EC50(β2); for Selectivity β2/β3 (functional): ratio EC50(β3)/EC50(β2)
T2 construct: expressed in transfected cells
Procedure: A HEK-293 cell line stably expressing cloned human β1 adrenergic receptor (clone H34.1) was grown to about 70%-90% confluency in medium consisting of DMEM supplemented with 10% FBS and 500 μg/mL Geneticin. A HEK-293 cell line stably expressing cloned human β2-adrenoceptor (clone H24.14) was grown in the same medium to full confluency. A CHO-K1 cell line stably expressing cloned human β3-adrenoceptor was grown to about 70%-90% confluency in Ham's F-12 medium supplemented with 10% FBS and with 800 μg/mL Geneticin added to every fifth passage. The day before the assay, cultures were switched to the same growth-media without antibiotics.
cAMP assays were performed in a radioimmunoassay format using the Flashplate Adenylyl Cyclase Activation Assay System with ^125I-cAMP (NEN SMP004, PerkinElmer Life Sciences Inc., Boston, Mass.), according to the manufacturers instructions.
On the day of the assay, cells were rinsed once with PBS, lifted with Versene 1:5,000 (0.2 g/L EDTA in PBS) and counted. Cells were pelleted by centrifugation at 1,000 rpm and resuspended in stimulation buffer prewarmed to 37° C. For cells expressing the β1-adrenoceptor, 10 nM ICI 118,551 were added to the stimulation buffer, and cells were incubated for 10 min at 37° C. Cells were used at final concentrations of 30,000, 40,000 and 70,000 cells/well for the β1-adrenoceptor-, the β2-adrenoceptor- and the β3-adrenoceptor expressing cells, respectively. Compounds were dissolved to a concentration of 10 mM in DMSO, then diluted to 1 mM in 50 mM Gly-HCl pH 3.0, and from there serially diluted into assay buffer (75 mM Tris/HCl pH 7.4 @ 25° C., 12.5 mM MgCl2, 1 mM EDTA, 0.2% BSA). Compounds were tested in the assay at 11 different concentrations, ranging from 10 μM to […]. Reactions were incubated for 10 min at 37° C. and stopped by addition of 100 μL ice-cold detection buffer. Plates were sealed, incubated over night at 4° C. and counted the next morning in a topcount scintillation counter (Packard BioScience Co., Meriden, Conn.). The amount of cAMP produced per mL of reaction was calculated based on the counts observed for the samples and cAMP standards, as described in the manufacturer's user manual. Data were analyzed by nonlinear regression analysis with the GraphPad Prism Software package (GraphPad Software, Inc., San Diego, Calif.) using the 3-parameter model for sigmoidal dose-response (Hill slope=1). Agonist potencies were expressed as pEC50 values. Functional β2/β1 selectivity was defined as the ratio EC50(β1)/EC50(β2), and correspondingly functional β2/β3 selectivity was defined as the ratio EC50(β3)/EC50(β2).

[2] = tested on: acetylcholine-induced bronchospasm; assay: Bronchoprotection against acetylcholine-induced bronchospasm in a guinea pig model (Test D); format: in vivo; details: inhalation
Procedure: Groups of 6 male guinea pigs (Duncan-Hartley (HsdPoc:DH) Harlan, Madison, Wis.) weighing between 250 and 350 g were individually identified by cage cards. Throughout the study animals were allowed access to food and water ad libitum.
Test compounds were administered via inhalation over 10 minutes in a whole-body exposure dosing chamber (R&S Molds, San Carlos, Calif.). The dosing chambers were arranged so that an aerosol was simultaneously delivered to 6 individual chambers from a central manifold. Following a 60 minute acclimation period and a 10 minute exposure to nebulized water for injection (WFI), guinea pigs were exposed to an aerosol of test compound or vehicle (WFI). These aerosols were generated from aqueous solutions using an LC Star Nebulizer Set (Model 22F51, PARI Respiratory Equipment, Inc. Midlothian, Va.) driven by a mixture of gases (CO2=5%, O2=21% and N2=74%) at a pressure of 22 psi. The gas flow through the nebulizer at this operating pressure was approximately 3 L/minute. The generated aerosols were driven into the chambers by positive pressure. No dilution air was used during the delivery of aerosolized solutions. During the 10 minute nebulization, approximately 1.8 mL of solution was nebulized. This was measured gravimetrically by comparing pre- and post-nebulization weights of the filled nebulizer.
The bronchoprotective effects of compounds administered via inhalation were evaluated using whole body plethysmography at 1.5, 24, 48 and 72 hours post-dose. Forty-five minutes prior to the start of the pulmonary evaluation, each guinea pig was anesthetized with an intramuscular injection of ketamine (43.75 mg/kg), xylazine (3.50 mg/kg) and acepromazine (1.05 mg/kg). After the surgical site was shaved and cleaned with 70% alcohol, a 2-5 cm midline incision of the ventral aspect of the neck was made. Then, the jugular vein was isolated and cannulated with a saline-filled polyethylene catheter (PE-50, Becton Dickinson, Sparks, Md.) to allow for intravenous infusions of a 0.1 mg/mL solution of acetylcholine (Ach), (Sigma-Aldrich, St. Louis, Mo.) in saline. The trachea was then dissected free and cannulated with a 14G teflon tube (#NE-014, Small Parts, Miami Lakes, Fla.). If required, anesthesia was maintained by additional intramuscular injections of the aforementioned anesthetic cocktail. The depth of anesthesia was monitored and adjusted if the animal responded to pinching of its paw or if the respiration rate was greater than 100 breaths/minute.
Once the cannulations were complete, the animal was placed into a plethysmograph (#PLY3114, Buxco Electronics, Inc., Sharon, Conn.) and an esophageal pressure cannula was inserted to measure pulmonary driving pressure (pressure). The teflon tracheal tube was attached to the opening of the plethysmograph to allow the guinea pig to breathe room air from outside the chamber. The chamber was then sealed.
Once it was determined that baseline values were within the range 0.3-0.9 mL/cm H2O for compliance and within the range 0.1-0.199 cm H2O/mL per second for resistance, the pulmonary evaluation was initiated. A Buxco pulmonary measurement computer program enabled the collection and derivation of pulmonary values. Starting this program initiated the experimental protocol and data collection. The changes in volume over time that occurred within the plethysmograph with each breath were measured via a Buxco pressure transducer. By […] this signal over time, a measurement of flow was calculated for each breath. This signal, together with the pulmonary driving pressure changes, which were collected using a Sensym pressure transducer (#TRD4100), was connected via a Buxco (MAX 2270) preamplifier to a data collection interface (#'s SFT3400 and SFT3813). All other pulmonary parameters were derived from these two inputs.
Baseline values were collected for 5 minutes, after which time the guinea pigs were challenged with Ach. […]

[3] = target: T1, human β2 adrenergic receptor; assay: Whole-cell cAMP Flashplate assay, lung epithelial cell line BEAS-2B endogenously expressing receptor (Test C); format: cell-based
Procedure: For the determination of agonist potencies and efficacies (intrinsic activities) in a cell line expressing endogenous levels of β2 adrenergic receptor, a human lung epithelial cell line (BEAS-2B) was used (ATCC CRL-9609, American Type Culture Collection, Manassas, Va.) (January B, et al., British Journal of Pharmacology, 1998, 123, 4, 701-11). Cells were grown to 75-90% confluency in complete, serum-free medium (LHC-9 MEDIUM containing Epinephrine and Retinoic Acid, cat #181-500, Biosource International, Camarillo, Calif.). The day before the assay, medium was switched to LHC-8 (No epinephrine or retinoic acid, cat #141-500, Biosource International, Camarillo, Calif.). […]
On the day of the assay, cells were rinsed with PBS, lifted by scraping with 5 mM EDTA in PBS, and counted. […]
Compounds were tested in the assay at 10 different concentrations, ranging from 10 μM to […]. Maximal response was determined in the presence of 10 μM Isoproterenol. […] Plates were sealed, incubated over night at 4° C. and counted the next morning in a topcount scintillation counter (Packard BioScience Co., Meriden, Conn.). The amount of cAMP produced per mL of reaction was calculated based on the counts observed for samples and cAMP standards, as described in the manufacturer's user manual. […]

T2 sequence (P07550 whole entry): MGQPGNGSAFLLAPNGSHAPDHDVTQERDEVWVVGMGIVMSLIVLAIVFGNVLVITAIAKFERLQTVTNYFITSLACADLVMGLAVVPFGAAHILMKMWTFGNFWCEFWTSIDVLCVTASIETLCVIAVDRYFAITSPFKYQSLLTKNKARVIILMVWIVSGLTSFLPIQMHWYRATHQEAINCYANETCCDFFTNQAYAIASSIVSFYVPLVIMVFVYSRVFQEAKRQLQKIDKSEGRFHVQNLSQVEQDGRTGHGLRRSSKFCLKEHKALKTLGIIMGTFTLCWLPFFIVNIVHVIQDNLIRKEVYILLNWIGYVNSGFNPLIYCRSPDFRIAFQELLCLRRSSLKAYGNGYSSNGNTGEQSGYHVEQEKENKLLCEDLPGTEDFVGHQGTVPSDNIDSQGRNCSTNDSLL
T1 sequence (P07550 whole entry): as above

SMILES | Ki [1] [pM] | Selectivity β2/β1 (binding) [1] | EC50 (human β2-adrenoceptor) [pM] | Selectivity β2/β1 (functional) (human β2-adrenoceptor) | Selectivity β2/β3 (functional) (human β2-adrenoceptor) | Activity at 1.5 hours post dose [2] | Activity at 72 hours post dose [2] | Activity at 72 hours post dose ([2]; listed as comparison compound) | EC50 ([3]; BEAS-2B endogenous cell line, cAMP) [pM] | Emax ([3]; BEAS-2B, Emax relative to 10 μM isoproterenol, read-out: % Efficacy) [%] | Activity at 72 hours post dose ([2]; listed as compound of the invention)
O=c1ccc2c([C@@H](O)CNCCCCCCOCCc3ccccc3)ccc(O)c2[nH]1 [Comparison Compound, 8-hydroxy-5-[(R)-1-hydroxy-2-(6-phenethyloxy-hexylamino)ethyl]-1H-quinolin-2-one, reference compound] | 794 | 76 | 50.1 | 54 | 370 | Yes | No | not active |  |  | 
O=c1ccc2c([C@@H](O)CNCCCCCCNCCc3ccccc3)ccc(O)c2[nH]1 [Compound of the Invention, 8-hydroxy-5-[(R)-1-hydroxy-2-(6-phenethylamino-hexylamino)ethyl]-1H-quinolin-2-one] | 25100 | 18 | 316 | 107 | 3900 | Yes | Yes |  | 3160 | 68 | demonstrated bronchoprotection

From patent publication US20080039495A1, “Diamine Beta2 Adrenergic Receptor Agonists” (priority 2004, published 2008)
